According to US4835162A (priority 1987, dated 1989):
Values joined by “and” are separate entries in the source; they are usually repeats but may differ in a detail not shown here. Equal values may be shown once. “Also recorded” adds a separate entry of the source. Read-outs that look alike come from different tables or passages of the source.

How the values were obtained:
[1] = tested on: nicotinic receptors (rat brain membranes)
[2] = tested on: nicotinic receptors (rat brain membranes); type: binding
[3] = tested on: rats; conditions: rat, in vivo
[4] = tested on: rat liver microsomal system; conditions: cited from earlier work
[5] = tested on: rats; conditions: rat, in vivo; remark: listed apart in the source
[6] = target: nicotinic receptors (rat brain membranes); type: binding; conditions: for IC50: read-out: 3H-Nicotine Binding IC50
[7] = target: nicotinic receptors (rat brain membranes); conditions: read-out: 3H-MCC Binding IC50
[8] = target: nicotinic receptors (rat brain membranes); type: binding; conditions: pH 7; read-out: [3H]-MCC IC50
[9] = tested on: rats or mice; conditions: in vivo; cited from earlier work
[10] = tested on: rats; conditions: rat, in vivo; remark: listed apart in the source
[11] = tested on: rats; conditions: rat, in vivo; remark: listed apart in the source
[12] = tested on: rats; set-up: species or system Sprague-Dawley male rats; Blockade of (nicotine-induced prostration) EC50: unit not given here; conditions: rat, in vivo
[13] = tested on: rats; assay: animal or person; conditions: Rattus norvegicus, ip, 7 min, read-out: % Antagonism (seizures)
[14] = tested on: rats; conditions: rat, in vivo; remark: listed apart in the source
[15] = tested on: rats; assay: animal or person; conditions: Rattus norvegicus, iv, read-out: Antagonistic dose needed to completely block elevation in systolic blood pressure
[16] = tested on: rat brain; conditions: cited from earlier work
[17] = in vivo; cited from earlier work

CN1CCCC1c1cccnc1 (single isomer, unassigned; (-)) [[^3 H]-nicotine, (-)-[^3 H]-nicotine]
Bmax of higher affinity site, [3H]-nicotine [1]: 5e-15 mol/mg | Bmax of lower affinity site, [3H]-nicotine [1]: 1e-14 mol/mg and 2e-14 mol/mg | displaceability of [3H]-nicotine binding by muscarinic antagonists [2]: not displaceable by muscarinic cholinergic antagonists

CNC(=O)OCC[N+](C)(C)C [MCC, Methylcarbamylcholine]
Prostration EC50 [3]: 10 | duration of prostration [3]: over 20 min | metabolism [4]: metabolized by a rat liver microsomal system | increase in psychotropic potency after quaternization of DMAE methyl carbamate [5]: over 10 fold | potency relative to (-)-nicotine (prostration) [5]: 1/5

C[N+]1(C)CCCC1c1cccnc1 (centres unmarked) [N'--methyl nicotonium]
IC50 ([6]; pH 7.5): 7 µM | IC50 ([7]; pH 7.5): 4 µM | Prostration EC50 [3]: 100 | IC50 [8]: 4 µM | IC50 ([2]; pH 7, read-out: [3H]-nicotine IC50): 7 µM | decrease in psychotropic potency with quaternization of nicotine [5]: 50 fold | potency in producing seizures and mortality, in words [9]: more potent than nicotine in producing seizures and mortality

C[N+](C)(C)CCOC(=O)c1ccccc1 [TMAE benzoate, benzoylcholine]
Antagonistic dose needed to completely block elevation in systolic blood pressure [10]: 1.5 ± 0.3 mg/kg | Seizures [11]: 1/8 | blockade of seizure activity [11]: 78% | Blockade of (nicotine-induced prostration) EC50 [12]: 10 | times as effective as the DMAE ester [12]: 5 times | responders at 25 mg/kg [13]: 78% | % Antagonism (protection against nicotine mortality) [14]: 63% | Mortality [14]: 3/10 | ED100 [15]: 1.5 mg/kg

CC(=O)OCC[N+](C)(C)C [[^3 H]-acetylcholine]
displaceability of [3H]-acetylcholine binding by muscarinic antagonists [16]: displaceable by low concentrations of muscarinic antagonists

CN1[C@@H](CC(=O)c2ccccc2)CCC[C@H]1C[C@H](O)c1ccccc1 [α-lobeline, reference compound]
binding affinity for nicotine receptor, in words [6]: even greater affinity than (-)-nicotine for the receptor; also recorded: very high affinity for brain nicotine receptors | IC50 [6]: 0.005 µM | pharmacologic effects, in words [17]: suppress the desire for tobacco; also recorded: hypertensive action resulting from the stimulation of the carotid body; also recorded: broncio-construction; also recorded: brochoarrythmia | Antagonistic dose needed to completely block elevation in systolic blood pressure [10]: 0.2 ± 0.05 mg/kg | IC50 [7]: 0.0007 µM | Seizures [11]: 1/8 | protection against seizures, in words [11]: complete protection against seizures | Blockade of (nicotine-induced prostration) EC50 [12]: 10 | blockade of nicotine-induced prostration / antagonism, in words [12]: most effective antagonist | responders at 5 mg/kg [13]: 0% | % Antagonism (reduction of nicotine mortality) [14]: 75% | Mortality [14]: 2/10 | ED100 [15]: 0.2 mg/kg
